Experimental data from patent US6613718B2, “Aryl ether derivatives and processes for their preparation and herbicidal and desiccant compositions containing them” (Ishihara Sangyo Kaisha, Ltd., priority 2001, dated 2003).

Legend:
Format in all cases: in vivo
Settings in all cases: 14 days after application
[1] = system: field corn (Zea mays L., var. Dekalb 535, CORN); test: Pre-emerge greenhouse screening, crop safety (phytotoxicity rating)
In short: (§1)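 For foliar (post-emergence) testing, 2-3 leaf seedlings were sprayed with acetone solutions including 0.25% v/v non-ionic surfactant, rates 15–1000 g ai/ha, then bottom-watered. Soil-applied (pre-emergence) tests used pots sown one day before spraying. Ratings, 0–100, were made at 14 days.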

[2] = system: soybean (Glycine max L., var. Pella 86, SOY); test: as above
In short: as §1

[3] = system: upland rice (Oryza sp., var.Tebonnet, RICE); test: as above
In short: as §1

[4] = system: ivyleaf morningglory (Ipomoea hederacea, IPOHE); test: Pre-emerge greenhouse herbicide activity screening, phytotoxicity rating
In short: as §1

[5] = system: barnyardgrass (Echinochloa crus-galli, ECHCG); test: as above
In short: as §1

[6] = system: lambsquarters (Chenopodium album, CHEAL); test: as above
In short: as §1

[7] = system: velvetleaf (Abutilon theophrasti, ABUTH); test: as above
In short: as §1

[8] = system: sicklepod (Cassia obtusifolia, CASOB); test: as above
In short: as §1

[9] = system: green foxtail (Setaria viridis, SETVI); test: as above
In short: as §1

[10] = system: large crabgrass (Digitaria sanguinalis, DIGSA); test: as above
In short: as §1

[11] = system: johnsongrass (Sorghum halepense, SORHA); test: as above
In short: as §1

[12] = system: common ragweed (Ambrosia artemisiifolia L., AMBEL); test: as above
In short: as §1

[13] = system: redroot pigweed (Amaranthus retroflexus, AMARE); test: as above
In short: as §1

[14] = system: ivyleaf morningglory (Ipomoea hederacea, IPOHE); test: Post-emerge greenhouse herbicide activity screening, phytotoxicity rating
In short: as §1

[15] = system: barnyardgrass (Echinochloa crus-galli, ECHCG); test: as above
In short: as §1

[16] = system: lambsquarters (Chenopodium album, CHEAL); test: as above
In short: as §1

[17] = system: velvetleaf (Abutilon theophrasti, ABUTH); test: as above
In short: as §1

[18] = system: sicklepod (Cassia obtusifolia, CASOB); test: as above
In short: as §1

[19] = system: green foxtail (Setaria viridis, SETVI); test: as above
In short: as §1

[20] = system: large crabgrass (Digitaria sanguinalis, DIGSA); test: as above
In short: as §1

[21] = system: johnsongrass (Sorghum halepense, SORHA); test: as above
In short: as §1

[22] = system: common ragweed (Ambrosia artemisiifolia L., AMBEL); test: as above
In short: as §1

[23] = system: redroot pigweed (Amaranthus retroflexus, AMARE); test: as above
In short: as §1

[24] = system: soybean (Glycine max L., var. Pella 86, SOY); test: Post-emerge greenhouse screening, crop safety (phytotoxicity rating)
In short: as §1

[25] = system: upland rice (Oryza sp., var.Tebonnet, RICE); test: as above
In short: as §1

[26] = system: field corn (Zea mays L., var. Dekalb 535, CORN); test: Post-emerge greenhouse screening, crop safety / corn selectivity (phytotoxicity rating)
In short: as §1

SMILES: COc1ccc(Oc2cc(-n3c(=O)cc(C(F)(F)F)n(C)c3=S)c(F)cc2C#N)cc1 [Compound 1-72]
- CORN crop damage, phytotoxicity rating (0-100 scale) ([1]; 125 g ai/ha): 5
- CORN crop damage, phytotoxicity rating (0-100 scale) ([1]; 250 g ai/ha): 8
- SOY crop damage, phytotoxicity rating (0-100 scale) ([2]; 125 g ai/ha): 0
- SOY crop damage, phytotoxicity rating (0-100 scale) ([2]; 250 g ai/ha): 40
- RICE crop damage, phytotoxicity rating (0-100 scale) ([3]; 125 g ai/ha): 0
- RICE crop damage, phytotoxicity rating (0-100 scale) ([3]; 250 g ai/ha): 0
- IPOHE phytotoxicity rating (0-100 scale) ([4]; 125 g ai/ha): 95
- IPOHE phytotoxicity rating (0-100 scale) ([4]; 250 g ai/ha): 100
- ECHCG phytotoxicity rating (0-100 scale) ([5]; 125 g ai/ha): 20
- ECHCG phytotoxicity rating (0-100 scale) ([5]; 250 g ai/ha): 80
- CHEAL phytotoxicity rating (0-100 scale) ([6]; 125 g ai/ha): 100
- CHEAL phytotoxicity rating (0-100 scale) ([6]; 250 g ai/ha): 100
- ABUTH phytotoxicity rating (0-100 scale) ([7]; 125 g ai/ha): 100
- ABUTH phytotoxicity rating (0-100 scale) ([7]; 250 g ai/ha): 100
- CASOB phytotoxicity rating (0-100 scale) ([8]; 125 g ai/ha): 65
- CASOB phytotoxicity rating (0-100 scale) ([8]; 250 g ai/ha): 100
- SETVI phytotoxicity rating (0-100 scale) ([9]; 125 g ai/ha): 20
- SETVI phytotoxicity rating (0-100 scale) ([9]; 250 g ai/ha): 80
- DIGSA phytotoxicity rating (0-100 scale) ([10]; 125 g ai/ha): 95
- DIGSA phytotoxicity rating (0-100 scale) ([10]; 250 g ai/ha): 99
- SORHA phytotoxicity rating (0-100 scale) ([11]; 125 g ai/ha): 60
- SORHA phytotoxicity rating (0-100 scale) ([11]; 250 g ai/ha): 60
- AMBEL phytotoxicity rating (0-100 scale) ([12]; 125 g ai/ha): 95
- AMBEL phytotoxicity rating (0-100 scale) ([12]; 250 g ai/ha): 95
- AMARE phytotoxicity rating (0-100 scale) ([13]; 125 g ai/ha): 100
- AMARE phytotoxicity rating (0-100 scale) ([13]; 250 g ai/ha): 100
- IPOHE phytotoxicity rating (0-100 scale) ([14]; 125 g ai/ha): 60
- IPOHE phytotoxicity rating (0-100 scale) ([14]; 250 g ai/ha): 60
- ECHCG phytotoxicity rating (0-100 scale) ([15]; 125 g ai/ha): 0
- ECHCG phytotoxicity rating (0-100 scale) ([15]; 250 g ai/ha): 0
- CHEAL phytotoxicity rating (0-100 scale) ([16]; 125 g ai/ha): 100
- CHEAL phytotoxicity rating (0-100 scale) ([16]; 250 g ai/ha): 100
- ABUTH phytotoxicity rating (0-100 scale) ([17]; 125 g ai/ha): 80
- ABUTH phytotoxicity rating (0-100 scale) ([17]; 250 g ai/ha): 90
- CASOB phytotoxicity rating (0-100 scale) ([18]; 125 g ai/ha): 0
- CASOB phytotoxicity rating (0-100 scale) ([18]; 250 g ai/ha): 0
- SETVI phytotoxicity rating (0-100 scale) ([19]; 125 g ai/ha): 0
- SETVI phytotoxicity rating (0-100 scale) ([19]; 250 g ai/ha): 0
- DIGSA phytotoxicity rating (0-100 scale) ([20]; 125 g ai/ha): 0
- DIGSA phytotoxicity rating (0-100 scale) ([20]; 250 g ai/ha): 0
- SORHA phytotoxicity rating (0-100 scale) ([21]; 125 g ai/ha): 0
- SORHA phytotoxicity rating (0-100 scale) ([21]; 250 g ai/ha): 0
- AMBEL phytotoxicity rating (0-100 scale) ([22]; 125 g ai/ha): 0
- AMBEL phytotoxicity rating (0-100 scale) ([22]; 250 g ai/ha): 0
- AMARE phytotoxicity rating (0-100 scale) ([23]; 125 g ai/ha): 80
- AMARE phytotoxicity rating (0-100 scale) ([23]; 250 g ai/ha): 90
- SOY crop damage, phytotoxicity rating (0-100 scale) ([24]; 125 g ai/ha): 0
- SOY crop damage, phytotoxicity rating (0-100 scale) ([24]; 250 g ai/ha): 0
- RICE crop damage, phytotoxicity rating (0-100 scale) ([25]; 125 g ai/ha): 0
- RICE crop damage, phytotoxicity rating (0-100 scale) ([25]; 250 g ai/ha): 0
- CORN crop damage, phytotoxicity rating (0-100 scale) ([26]; 125 g ai/ha): 0
- CORN crop damage, phytotoxicity rating (0-100 scale) ([26]; 250 g ai/ha): 0
